According to patent publication US20060235076A1, “Medicinal composition for treating infection with drug-resistant staphylococcus aureus” (priority 2003, published 2006):
Converted amounts (≈) assume the structure as drawn. Read-outs that look alike come from different tables or passages of the source.

Experiments:
[1] = test system: MRSA COL and MRSA Strain No. 5; experiment: Potentiating effect of various gallates for antibacterial activity of oxacillin (MIC by broth microdilution method and FIC); format: cell-based, Staphylococcus aureus; details: for FIC value: combination with oxacillin
Method: According to the broth microdilution method defined by Japan Society of Chemotherapy, MIC was determined. CAMHA was prepared by adding 50 mg/l of Ca-ion, 25 mg/l of Mg-ion, and 2% of NaCl to MHB (Mueller-Hinton Broth), and it was used as a medium for use in the measurement of sensitivity. In 96-well microplates 100 μl of the medium for use in the measurement of sensitivity containing drugs was dispensed. The bacterial liquid was incubated at 37° C. overnight, diluted with saline and added to the plate so that the final concentration of the bacteria was 5×10^5 CFU/well. […] FIC (fractional inhibitory concentration) was calculated from the result and the potency of the effect of the combination use was evaluated.

[2] = test system: MRSA and MSSA; experiment: Antibacterial activity of gallic acid, various gallates and multivalent phenol derivatives alone (agar plate dilution method, MIC); format: cell-based, Staphylococcus aureus; details: Staphylococcus aureus
Procedure, shortened: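 Agar plate dilution MIC per Japan Society of Chemotherapy, on Mueller-Hinton II agar supplemented with 50 mg/l Ca-ion, 25 mg/l Mg-ion and 2% NaCl. Inoculum grown overnight at 37 °C and diluted in saline to 10^6 CFU/ml. Compounds tested alone.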

## CCCCCCCCCCCCOC(=O)c1cc(O)c(O)c(O)c1 [Lauryl gallate, n-lauryl gallate]
[1]; MRSA COL
  FIC value: 0.531
[1]; MRSA Strain No. 5
  FIC value: 0.375
[2]; ATCC 6538 / MRSA / MSSA, ATCC6538, compound alone, read-out: MIC
  MIC: 62.5 µg/mL (≈ 185 µM)
[2]; COL, compound alone, read-out: MIC
  MIC: 31.3 µg/mL (≈ 92.5 µM)
[2]; MRSA #1, compound alone, read-out: MIC
  MIC: 62.5 µg/mL (≈ 185 µM)
[2]; MRSA #2, compound alone, read-out: MIC
  MIC: 62.5 µg/mL (≈ 185 µM)
[2]; MRSA #3, compound alone, read-out: MIC
  MIC: 62.5 µg/mL (≈ 185 µM)
[2]; MRSA #4, compound alone, read-out: MIC
  MIC: 62.5 µg/mL (≈ 185 µM)
[2]; MRSA #5, compound alone, read-out: MIC
  MIC: 62.5 µg/mL (≈ 185 µM)
[2]; MRSA #6, compound alone, read-out: MIC
  MIC: 31.3 µg/mL (≈ 92.5 µM)
[2]; MRSA #7, compound alone, read-out: MIC
  MIC: 31.3 µg/mL (≈ 92.5 µM)
[2]; MRSA #8, compound alone, read-out: MIC
  MIC: 31.3 µg/mL (≈ 92.5 µM)
[2]; MRSA #9, compound alone, read-out: MIC
  MIC: 31.3 µg/mL (≈ 92.5 µM)
[2]; MRSA #10, compound alone, read-out: MIC
  MIC: 15.6 µg/mL (≈ 46.1 µM)
[2]; MRSA #12, compound alone, read-out: MIC
  MIC: 62.5 µg/mL (≈ 185 µM)
[2]; MRSA #16, compound alone, read-out: MIC
  MIC: 62.5 µg/mL (≈ 185 µM)
[2]; MRSA #17, compound alone, read-out: MIC
  MIC: 62.5 µg/mL (≈ 185 µM)
[2]; MRSA #18, compound alone, read-out: MIC
  MIC: 62.5 µg/mL (≈ 185 µM)
[2]; MRSA #20, compound alone, read-out: MIC
  MIC: 62.5 µg/mL (≈ 185 µM)
[2]; MRSA #21, compound alone, read-out: MIC
  MIC: 62.5 µg/mL (≈ 185 µM)
[2]; MRSA #22, compound alone, read-out: MIC
  MIC: 62.5 µg/mL (≈ 185 µM)
[2]; MRSA #24, compound alone, read-out: MIC
  MIC: 62.5 µg/mL (≈ 185 µM)
[2]; MSSA #1003, compound alone, read-out: MIC
  MIC: 62.6 µg/mL (≈ 185 µM)
[2]; MSSA #1010, compound alone, read-out: MIC
  MIC: 62.5 µg/mL (≈ 185 µM)
[2]; MSSA #1020, compound alone, read-out: MIC
  MIC: 62.5 µg/mL (≈ 185 µM)
[2]; MSSA #1023, compound alone, read-out: MIC
  MIC: 62.5 µg/mL (≈ 185 µM)
[2]; MSSA #1029, compound alone, read-out: MIC
  MIC: 62.5 µg/mL (≈ 185 µM)
[2]; MSSA #1032, compound alone, read-out: MIC
  MIC: 62.5 µg/mL (≈ 185 µM)
[2]; over all strains of Table 3-2, compound alone, read-out: MIC50
  MIC50: 62.5 µg/mL (≈ 185 µM)

## CCCCCCCCCOC(=O)c1cc(O)c(O)c(O)c1 [Nonyl gallate, n-nonyl gallate]
[1]; COL Strain and Strain No. 5
  antibacterial activity when used alone: most potent
[1]; MRSA COL
  FIC value: 0.625
[1]; MRSA Strain No. 5
  FIC value: 0.502
[2]
  MIC50: 15.7 µg/mL (≈ 53 µM)
[2]; ATCC 6538 / MRSA / MSSA, read-out: MIC alone
  MIC: 15.7 µg/mL (≈ 53 µM)
[2]; COL, read-out: MIC alone
  MIC: 15.7 µg/mL (≈ 53 µM)
[2]; MRSA #1, read-out: MIC alone
  MIC: 15.7 µg/mL (≈ 53 µM)
[2]; MRSA #2, read-out: MIC alone
  MIC: 15.7 µg/mL (≈ 53 µM)
[2]; MRSA #3, read-out: MIC alone
  MIC: 15.7 µg/mL (≈ 53 µM)
[2]; MRSA #4, read-out: MIC alone
  MIC: 15.7 µg/mL (≈ 53 µM)
[2]; MRSA #5, read-out: MIC alone
  MIC: 15.7 µg/mL (≈ 53 µM)
[2]; MRSA #6, read-out: MIC alone
  MIC: 15.7 µg/mL (≈ 53 µM)
[2]; MRSA #7, read-out: MIC alone
  MIC: 15.7 µg/mL (≈ 53 µM)
[2]; MRSA #8, read-out: MIC alone
  MIC: 15.7 µg/mL (≈ 53 µM)
[2]; MRSA #9, read-out: MIC alone
  MIC: 15.7 µg/mL (≈ 53 µM)
[2]; MRSA #10, read-out: MIC alone
  MIC: 15.7 µg/mL (≈ 53 µM)
[2]; MRSA #12, read-out: MIC alone
  MIC: 15.7 µg/mL (≈ 53 µM)
[2]; MRSA #16, read-out: MIC alone
  MIC: 15.7 µg/mL (≈ 53 µM)
[2]; MRSA #17, read-out: MIC alone
  MIC: 15.7 µg/mL (≈ 53 µM)
[2]; MRSA #18, read-out: MIC alone
  MIC: 15.7 µg/mL (≈ 53 µM)
[2]; MRSA #20, read-out: MIC alone
  MIC: 15.7 µg/mL (≈ 53 µM)
[2]; MRSA #21, read-out: MIC alone
  MIC: 15.7 µg/mL (≈ 53 µM)
[2]; MRSA #22, read-out: MIC alone
  MIC: 15.7 µg/mL (≈ 53 µM)
[2]; MRSA #24, read-out: MIC alone
  MIC: 15.7 µg/mL (≈ 53 µM)
[2]; MRSA and MSSR, read-out: MIC alone
  MIC: 15.7 µg/mL (≈ 53 µM)
[2]; MSSA #1003, read-out: MIC alone
  MIC: 15.7 µg/mL (≈ 53 µM)
[2]; MSSA #1010, read-out: MIC alone
  MIC: 15.7 µg/mL (≈ 53 µM)
[2]; MSSA #1020, read-out: MIC alone
  MIC: 15.7 µg/mL (≈ 53 µM)
[2]; MSSA #1023, read-out: MIC alone
  MIC: 15.7 µg/mL (≈ 53 µM)
[2]; MSSA #1029, read-out: MIC alone
  MIC: 15.7 µg/mL (≈ 53 µM)
[2]; MSSA #1032, read-out: MIC alone
  MIC: 15.7 µg/mL (≈ 53 µM)
